The assay addresses T1, recombinant autotaxin (Homo sapiens, UniProt Q13822).
T1 construct: made in house; host or cells: Hi5 insect cells (baculovirus)
The assay is described as follows: Autotaxin test (enzyme test), Amplex Red fluorescence readout. To be noted: Autotaxin inhibition (enzyme test); substrate LPC 75 μM, 37° C. for 90 min. It counts as biochemical. As to the method: Pharmacological Data Autotaxin Inhibition (Enzyme Test)
Autotaxin Test (Enzyme Test)
The autotaxin activity is measured indirectly using Amplex Red reagent. Amplex Red is measured here as fluorogenic indicator for the H2O2 formed. In detail, autotaxin converts the substrate lysophosphatidylcholine (LPC) into phosphocholine and lysophosphatidylic acid (LPA). After this reaction, the phosphocholine is reacted with alkaline phosphatase to give inorganic phosphate and choline. In the next step, choline is oxidised by choline oxidase to give betaine, with formation of H2O2. H2O2 reacts with Amplex Red reagent in the presence of peroxidase (horseradish peroxidase) in a 1:1 stoichiometry and forms the highly fluorescent resorufin. The fluorescence is measured in a reaction-dependent kinetic mode in order that fluorescent signals from possible other fluorescent substances which are not involved in the reaction can be corrected out.
1.5 μl of a standard solution or of the test substances (substances with the name A(n)) in individual concentrations dissolved in 20 mM Hepes pH 7.2 with a maximum of 7.7% of DMSO are pre-incubated together with 10 μl (16 ng) of highly purified recombinant autotaxin in a black microtitre plate provided with 384 wells at 22° C. for 30 min. The reaction is then initiated by addition of 5 μl of L-α-lysophosphatidylcholine (LPC), where the final concentration of LPC is 75 μM. The mixture is incubated at 37° C. for 90 min. After the incubation, Amplex Red reagent, peroxidase (horseradish peroxidase) and choline oxidase is added, and the fluorescence is immediately measured at 612 nm with excitation of 485 nm in a “Tecan Ultra multimode” reader. The activity of autotaxin is calculated indirectly via detection of the H2O2 formed.
• Microtitre plate: PS microplate, 384 wells, small volume, black Corning, Cat#3677 • Protein: recombinant autotaxin (Baculovirale Hi5 Expression) • Substrate: L-α-lysophosphatidylcholine (chicken egg)); Avanti Polar Lipids #830071P • Standard: C14 LPA, Avanti Polar Lipids, Cat#857120P • Detection reagent: Amplex Red reagent; Invitrogen # A12222; dissolved in 1.923 ml of DMSO peroxidase type VI-A (horseradish) from Sigma # P6782; dissolved in 7.45 ml of test buffer, choline oxidase; Sigma # C5896; dissolved in 2.47 ml of test buffer • Detection reagent mix: 1:100 dilution of Amplex Red reagent in test buffer • Test buffer: 200 mM Tris HCl, Merck, Cat #1.08219, pH 7.9, 0.1% of BSA, lipid-free, Roche Cat#775835

Each structure is given as a SMILES string.

The term IC50 denotes the point on the concentration scale where inhibition reaches its midpoint. `O=C(Nc1ccc2[nH]c(=O)oc2c1)C(c1ccccc1)N1CCN(C(=O)OCc2ccc(Cl)cc2)CC1` (stereo not drawn) [Compound A10, 4-Chlorobenzyl 4-[(2-oxo-2,3-dihydrobenzoxazol-6-ylcarbamoyl)phenylmethyl]piperazine-l-carboxylate]: the IC50 is greater than 1000 nM.
Take `O=C(CCNC(=O)N1CCN(C(=O)OCc2ccc(Cl)cc2)CC1)Nc1ccc2[nH]nnc2c1` [Compound 33, 4-chlorobenzyl 4-[2-(1H-benzotriazol-5-ylcarbamoyl)ethyl-carbamoyl]piperazine-1-carboxylate]: the IC50 was greater than 1000 nM.
To `O=C(CN1CCN(C(=O)OCc2ccc(Cl)cc2)CC1)Nc1ccc2[nH]c(=O)oc2c1` [Compound A8, 4-Chlorobenzyl 4-[(2-oxo-2,3-dihydrobenzoxazol-6-ylcarbamoyl)methyl]piperazine-1-carboxylate] belongs greater than 1000 nM; to `O=C(CN1CCN(C(=O)CCOc2ccc(Cl)cc2)CC1)c1ccc2[nH]c(=O)oc2c1` [Compound 27, 6-(2-{4-[3-(4-chlorophenoxy)propionyl]piperazin-1-yl}acetyl)-3H-benzoxazol-2-one], greater than 1000 nM; to `O=C(OCc1cc(Cl)cc(Cl)c1)N1CCN(CCN2CCC(c3ccc4[nH]c(=O)oc4c3)=N2)CC1` [Compound 21, 3,5-dichlorobenzyl 4-{2-[3-(2-oxo-2,3-dihydrobenzoxazol-6-yl)-4,5-dihydropyrazol-1-yl]ethyl}piperazine-1-carboxylate], greater than 1000 nM.
`O=C(CCN1CCN(C(=O)OCc2ccc(Cl)cc2)CC1)Nc1ccc2[nH]c(=O)oc2c1` [Compound A13, 4-Chlorobenzyl 4-[2-(2-oxo-2,3-dihydrobenzoxazol-6-ylcarbamoyl)ethyl]piperazine-1-carboxylate]: the IC50 was greater than 1000 nM.
Regarding `O=C(OCc1cc(Cl)cc(Cl)c1)N1CCN(CCC(O)c2ccc3[nH]c(=O)oc3c2)CC1` (stereo not drawn) [Compound 13, 3,5-dichlorobenzyl 4-[3-hydroxy-3-(2-oxo-2,3-dihydrobenzoxazol-6-yl)propyl]piperazine-1-carboxylate], the concentration for half-maximal inhibition (IC50) lay in the range of 100 to 1000 nM.
Regarding `O=C(OCc1cc(Cl)cc(Cl)c1)N1CCN(CC(O)c2ccc3[nH]c(=O)oc3c2)CC1` (stereo not drawn) [Compound A18, 3,5-Dichlorobenzyl 4-[2-hydroxy-2-(2-oxo-2,3-dihydrobenzoxazol-6-yl)ethyl]piperazine-1-carboxylate], the IC50 was greater than 1000 nM.
To `O=C(CNC1CCN(C(=O)OCc2cc(Cl)cc(Cl)c2)CC1)Nc1ccc2[nH]c(=O)oc2c1` [Compound 11, 3,5-dichlorobenzyl 4-{[(2-oxo-2,3-dihydrobenzoxazol-6-ylcarbamoyl)methyl]amino}piperidine-1-carboxylate] belongs 100 to 1000 nM; to `O=C(NCCN1CCN(C(=O)OCc2cc(Cl)cc(Cl)c2)CC1)c1ccc2[nH]nnc2c1` [Compound A1, 3,5-Dichlorobenzyl 4-{2-[(1H-benzotriazole-5-carbonyl)amino]ethyl}piperazine-1-carboxylate], 100 to 1000 nM; to `O=C(CN1CCC(NC(=O)OCc2cc(Cl)cc(Cl)c2)C1)Nc1ccc2[nH]nnc2c1` (stereo not drawn) [Compound A16, 3,5-Dichlorobenzyl {1-[(1H-benzotriazol-5-yl-carbamoyl)methyl]pyrrolidin-3-yl}crbamate], greater than 1000 nM.
Take `O=C(Cc1ccc2[nH]nnc2c1)N1CCN(C(=O)OCc2ccc(Cl)cc2)CC1` [Compound 24, 4-chlorobenzyl 4-(2-1H-benzotriazol-5-ylacetyl)piperazine-1-carboxylate]: the half-maximal inhibitory concentration (IC50) was greater than 1000 nM.
`O=C(CCCN1CCN(C(=O)OCc2ccc(Cl)cc2)CC1)Nc1ccc2[nH]nnc2c1` [Compound A14, 4-Chlorobenzyl 4-[3-(1H-benzotriazol-5-yl-carbamoyl)propyl]piperazine-1-carboxylate]: the 50% inhibitory concentration (IC50) was greater than 1000 nM.
The value for `O=C(OCc1ccc(Cl)cc1)N1CCN(CCC(F)(F)c2ccc3[nH]c(=O)oc3c2)CC1` [Compound 17, 4-chlorobenzyl 4-[3,3-difluoro-3-(2-oxo-2,3-dihydrobenzoxazol-6-yl)propyl]piperazine-1-carboxylate] was 100 to 1000 nM.
With `O=C(NC1[C@H]2CN(C(=O)OCc3cc(Cl)cc(Cl)c3)C[C@@H]12)c1ccc2nn[nH]c2c1` (stereo partly drawn) [Compound A17, 3,5-Dichlorobenzyl (1R,5S)-6-[(3H-benzotriazole-5-carbonyl)amino]-3-azabicyclo[3.1.0]hexane-3-carboxylate], the IC50 was greater than 1000 nM.
To `O=C(NCCN1CCN(C(=O)OCc2ccc(C(F)(F)F)cc2)CC1)c1ccc2[nH]nnc2c1` [Compound A2, 4-Trifluoromethylbenzyl 4-{2-[(1H-benzotriazole-5-carbonyl)amino]ethyl}piperazine-1-carboxylate] belongs greater than 1000 nM.
The value for `O=C(NCCN1CCN(C(=O)OCc2ccc(Cl)cc2F)CC1)c1ccc2[nH]nnc2c1` [Compound A3, 4-Chloro-2-fluorobenzyl 4-{2-[(1H-benzotriazole-5-carbonyl)amino]ethyl}piperazine-1-carboxylate] was greater than 1000 nM.
Turning to `O=C(CC(=O)NC1CCN(C(=O)OCc2ccc(Cl)cc2)CC1)Nc1ccc2[nH]nnc2c1` [Compound 39, 4-chlorobenzyl 4-[2-(1H-benzotriazol-5-ylcarbamoyl)acetylamino]piperidine-1-carboxylate], the half-inhibitory concentration (IC50) is 100 to 1000 nM.

For the origin of these results see patent US8841324B2, “Heterocyclic compounds as autotaxin inhibitors” (Merck Patent GmbH, priority 2009, dated 2014).
